Test system: diabetic mice
Experiment: Fasting blood glucose in diabetic mice fed test diets
Type: in vivo, Mice (C57BL/6J)
Protocol: Mice (C57BL/6J) weighing 20-grams were fed a high fat, high sucrose diet with no added chromium (No. D01030101, Research Diets Inc., New Brunswick, N.J.). After two weeks, they were injected intraperitoneally (i.p.) with streptozotocin (in phosphate-buffered saline, PBS) at a dose of 35 mg/kg body weight on 3 consecutive days. The combination of the high fat/high sucrose diet and streptozotocin treatment produced an impaired glucose tolerance evident 7 days following the initial streptozotocin injection (FIG. 5). Glucose tolerance was measured in mice fasted overnight and then injected i.p. with 1 g glucose/kg body weight (0.25 mL of a 10% glucose solution in PBS). Blood glucose was measured using a glucometer (OneTouch Ultra, LifeScan Inc., Milpitas, Calif.) on a drop of blood obtained from the saphenous vein just prior to (0 time) and at 10, 30, 60, 90 and 120 minutes following injection.
Animals were subsequently assigned to one of four different diet treatments, six animals per group. The diets were modified from the above high fat, high sucrose diet (Table 6). Each diet contained 1.5% fish oil concentrate (40:20 EPA/DHA ethyl ester, Ocean Nutrition Canada, Ltd., Mulgrave, NS). […] The animals were fed these diets for 4 weeks, after which time, fasting blood glucose and glucose tolerance was evaluated. […]

O=C([O-])c1ccccn1.O=C([O-])c1ccccn1.O=C([O-])c1ccccn1.[Cr+3] [Cr picolinate] was tested. Which “Fast blood glucose levels” value (diabetic mice (high fat/high sucrose diet + streptozotocin), diet with 1000 μg elemental Cr/kg diet for 4 weeks, fasted) did it give?
Its value is 8.17 ± 1.8 mM.

And the “fasting blood glucose compared to the level in the control group” value (diabetic mice, dietary Cr for 4 weeks)?
Its value is “reduction in fasting blood glucose”.
